Experimental data published in publication PMC9749936, “Synthesis and structure–activity relationship studies of N-terminal analogues of the lipopeptide antibiotics brevicidine and laterocidine” (RSC Medicinal Chemistry, 2022).
Bridge positions count the residues as written; N and C are the ends. Square brackets hold non-standard residues; d marks the D form. Peptide text beside a SMILES is read from it. * marks the point of attachment. ξ: configuration not given here. Hexanoyl(4ξ-Me) = CCC(C)CCC(=O)*; Myristoyl = CCCCCCCCCCCCCC(=O)*; Decanoyl = CCCCCCCCCC(=O)*; dOrn = NCCC[C@@H](N)C(=O)O; Octanoyl = CCCCCCCC(=O)*; Orn = NCCC[C@H](N)C(=O)O

Assays:
[1] = test system: E. coli ATCC 25922 MCR-1; format: cell-based, Escherichia coli; conditions: colistin-resistant strain carrying mcr-1; CLSI broth microdilution in MHB, 18 h at 37 °C, visual inspection; three technical replicates
Description: (§1) The minimum inhibitory concentrations (MICs) of brevicidine and laterocidine analogues were determined against a panel of clinically relevant ESKAPE pathogens; Escherichia coli (E. coli), Klebsiella pneumoniae (K. pneumoniae), Acinetobacter baumannii (A. baumannii), Pseudomonas aeruginosa (P. aeuroginosa) and Staphylococcus aureus (S. aureus), which cause the majority of nosocomial infections in the United States.[16] […] In this resistance mechanism, the polymyxin target (lipid A) is modified, reducing binding affinity. For this reason, a strain of colistin-resistant E. coli carrying the mcr-1 gene was also included in the panel. […]
Colisitin sulfate was purchased from Activate Scientific. Kanamycin monosulfate was purchased from MP Biomedicals. E. coli ATCC 25922, S. aureus USA300 (ATCC BAA1717), K. pneumoniae ATCC 13883 and A. baumannii ATCC 17961 belong to the American Type Culture Collection (ATCC). P. aeruginosa PAO1 was kindly provided by L.H.C. Quarles Van Ufford, Utrecht University, Utrecht, The Netherlands. E. coli ATCC 25922 MCR-1 was transfected in house using the pGDP2-MCR1 plasmid kindly provided by Yong-Xin Li, The University of Hong Kong, Hong Kong, China. Sheep blood agar plates (Ref. PB5039A) were purchased from Thermo Scientific. Tryptic soy broth (Ref. 02-200-500) was purchased from Scharlab. Mueller-Hinton broth (Ref. X927.1) was purchased from Carl Roth. Polypropylene 96-wells plates (Ref. 3879) were purchased from Corning. […]
(10.0 mL). 2-Chlorotrityl (CT) chloride resin (2.00 g, 0.81 mmol g-1) and DIPEA (420 µL, 2.40 mmol) were added. […]
A gradient […]
method for C14 - C16 laterocidine was employed, starting at 100% solvent A for 2 min, ramping up to 70 % solvent B over 45 min, ramping up to 100% solvent B over 1 min, remaining there for 6 min before ramping down to 100% solvent A and remaining there for 5 min. High resolution mass spectrometry (HRMS) spectra of brevicidine peptides were recorded by Analytical Services and Environmental Projects (ASEP) at Queen’s University Belfast on a Waters LCT Premier ToF mass spectrometer using the electrospray ionisation (ESI) technique. HRMS spectra of laterocidine peptides were performed on a Thermo Scientific Dionex UltiMate 3000 HPLC system with a Phenomenex Kinetex C18 (2.6 µm, 2.1 x 150 mm) column at 35 °C and equipped with a diode array detector. The following solvent system, at a flow rate of 0.3 mL/min, was used: solvent A = 0.1% formic acid in water, solvent B = 0.1% formic acid in acetonitrile. A gradient method was employed, starting at 95 % solvent A and 5 % solvent B for 1 min, ramping up to 95 % solvent B over 9 min, ramping up to 98 % solvent B over 1 min, remaining there for 1 min before ramping back down to 95 % solvent A over 2 min and remaining there for 1 min.
The system was connected to a Bruker micrOTOF-Q II mass spectrometer (ESI ionization) calibrated internally with sodium […]
(§2) IV. Antimicrobial testing
(§3) All minimum inhibitory concentrations (MICs) were determined according to Clinical and Standards Laboratory Institute (CLSI) guidelines. Blood agar plates were inoculated with glycerol stocks of E. coli ATCC 25922, K. pneumoniae ATCC 13883, A. baumannii ATCC 17961, P. aeruginosa PAO1 and S. aureus USA300. The inoculated agar plates were then incubated for 16 h at 37 °C . Individually grown colonies were subsequently used to inoculate 5 mL aliquots of TSB that were then incubated at 37 °C with shaking at 220 rpm. E. coli 25922 MCR-1 glycerol stock was used to inoculate 5 mL of TSB supplemented with kanamycin that was then incubated for 16 h at 37 °C with shaking at 220 rpm. The next day the culture was diluted 100 fold in TSB supplemented with kanamycin and incubated at 37 °C with shaking at 220 rpm. In parallel, the lipopeptide antibiotics DMSO stocks to be assessed were serially diluted with MHB in polypropylene 96-well plates (50 µL in each well). Colistin sulfate stocks were dissolved in water before being diluted with MHB. […]

[2] = test system: K. pneumoniae ATCC 13883; format: cell-based, Klebsiella pneumoniae; conditions: ATCC 13883, 18 h
Description: as §1, §2
as §3, with “MHB. Aliquots of the inoculated TSB were incubated until an OD600 of around 0.5 was reached. The bacterial suspensions were then diluted with MHB (2 x 10^5 CFU mL-1) and added to the microplates containing the test compounds (50 µL to each well). The well-plates were sealed with an adhesive membrane and after 18 h of incubation at 37 °C with shaking at 600 rpm, the wells were visually inspected for bacterial” for “MHB.”
(§4) growth. MIC values reported are based on three technical replicates and defined as the lowest concentration of the compound that prevented visible growth of bacteria. […]
(§5) The values obtained from a read-out at 415 nm were corrected for background (negative control) and transformed to a percentage relative to the positive control.
(§6) VI. HPLC and HRMS analysis of peptides
(§7) Peptide Name Chemical Calcd Mass found Calcd Overall […]

[3] = test system: P. aeruginosa PAO1; format: cell-based, Pseudomonas aeruginosa; conditions: PAO1, 18 h
Description: as §1, §2
as §3, with “MHB. Aliquots of the inoculated TSB were incubated until an OD600 of around 0.5 was reached. The bacterial suspensions were then diluted with MHB (2 x 10^5 CFU mL-1) and added to the microplates containing the test compounds (50 µL to each well). The well-plates were sealed with an adhesive membrane and after 18 h of incubation at 37 °C with shaking at 600 rpm, the wells were visually inspected for bacterial” for “MHB.”
as §4, §5, §6, §7

[4] = test system: A. baumannii ATCC 17961; format: cell-based, Acinetobacter baumannii; conditions: ATCC 17961, 18 h
Description: as §1, §2
as §3, with “MHB. Aliquots of the inoculated TSB were incubated until an OD600 of around 0.5 was reached. The bacterial suspensions were then diluted with MHB (2 x 10^5 CFU mL-1) and added to the microplates containing the test compounds (50 µL to each well). The well-plates were sealed with an adhesive membrane and after 18 h of incubation at 37 °C with shaking at 600 rpm, the wells were visually inspected for bacterial” for “MHB.”
as §4, §5, §6, §7

[5] = test system: Sheep red blood cells; format: cell-based; conditions: red cells of sheep, 1 h, 64 μg mL^−1
Description: Having ascertained the antimicrobial activity of all synthetic peptides against a panel of ESKAPE pathogens, we next assessed their mammalian toxicity with hemolytic assays using sheep red blood cells. The % hemolysis for all peptides at 64 μg mL^−1 was determined, with the hemolysis induced by the surfactant 0.1% Triton X-100 taken as 100%. […] Hemolysis was <1% for all analogues with a C8 chain or shorter, including the strongest antibacterial peptide C8-Lat (22). Hemolytic activity increased up to C14 (>50% for C14-Lat) and then decreased at longer chain lengths, perhaps due to decreased solubility of peptides or aggregation. […]
Phosphate-Buffered Saline (PBS) containing 0.002% Tween20 (buffer) five times. Then, the red blood cells were normalized to obtain a positive control read-out between 2.5 and 3.0 at 415 nm to stay within the linear range with the maximum sensitivity. A serial dilution of the compounds (128 – 1 µg/mL, 75 µL) was prepared in a 96-well polypropylene plate. The outer border of the plate was filled with 75 µL buffer. Each plate contained a positive control (0.1% Triton-X final concentration, 75 µL) and a negative control (buffer, 75 µL) in triplicate. The normalized blood cells (75 µL) were added and the plates were incubated at 37 °C for 1 h while shaking at 500 rpm. A flat-bottom polystyrene plate with 100 µL buffer in each well was prepared. After incubation, the plates were centrifuged (800 g for 5 min at room temperature) and 25 µL of the supernatant was transferred to their respective wells in the flat-bottom plate. The values obtained from a read-out at 415 nm were corrected for background (negative control) and transformed to a percentage relative to the positive control. […]

[6] = test system: E. coli ATCC 25922; format: cell-based, Escherichia coli; conditions: ATCC 25922, 18 h
Description: as §1, §2
as §3, with “MHB. Aliquots of the inoculated TSB were incubated until an OD600 of around 0.5 was reached. The bacterial suspensions were then diluted with MHB (2 x 10^5 CFU mL-1) and added to the microplates containing the test compounds (50 µL to each well). The well-plates were sealed with an adhesive membrane and after 18 h of incubation at 37 °C with shaking at 600 rpm, the wells were visually inspected for bacterial” for “MHB.”
as §4, §5, §6, §7

[7] = test system: S. aureus USA300; format: cell-based, Staphylococcus aureus; conditions: USA300, 18 h
Description: as §1, §2
as §3, with “MHB. Aliquots of the inoculated TSB were incubated until an OD600 of around 0.5 was reached. The bacterial suspensions were then diluted with MHB (2 x 10^5 CFU mL-1) and added to the microplates containing the test compounds (50 µL to each well). The well-plates were sealed with an adhesive membrane and after 18 h of incubation at 37 °C with shaking at 600 rpm, the wells were visually inspected for bacterial” for “MHB.”
as §4, §5, §6, §7

| Compound | Antimicrobial activity (MIC) E. coli ATCC 25922 MCR-1 [1] [µg/mL] | Antimicrobial activity (MIC) K. pneumoniae ATCC 13883 [2] [µg/mL] | Antimicrobial activity (MIC) P. aeruginosa PAO1 [3] [µg/mL] | Antimicrobial activity (MIC) A. baumannii ATCC 17961 [4] [µg/mL] | % Hemolytic activity, sheep red blood cells [5] [%] | Antimicrobial activity (MIC) E. coli ATCC 25922 [6] [µg/mL] | Antimicrobial activity (MIC) S. aureus USA300 [7] [µg/mL] |
| --- | --- | --- | --- | --- | --- | --- | --- |
| CCC(C)CCC(=O)N[C@H](CC(N)=O)C(=O)N[C@H](Cc1ccc(O)cc1)C(=O)N[C@H](Cc1c[nH]c2ccccc12)C(=O)N[C@H](CCCN)C(=O)N[C@@H](CCCN)C(=O)NCC(=O)N[C@H](CCCN)C(=O)N[C@@H](Cc1c[nH]c2ccccc12)C(=O)N[C@@H]1C(=O)N[C@@H]([C@@H](C)CC)C(=O)NCC(=O)N[C@@H](CO)C(=O)O[C@@H]1C (some centres unmarked) [Compound 1, brevicidine] ({Hexanoyl(4ξ-Me)}-[dN][dY][dW][dOrn][Orn]G[dOrn]WTIGS; ester 9-C) | 4 | 2 | 8 | 4 | 0.8 | 4 | >32 |
| CCCCCCCCCC(=O)N[C@H](CC(N)=O)C(=O)N[C@H](Cc1ccc(O)cc1)C(=O)N[C@H](Cc1c[nH]c2ccccc12)C(=O)N[C@H](CCCN)C(=O)N[C@@H](CCCN)C(=O)NCC(=O)N[C@H](CCCN)C(=O)N[C@@H](Cc1c[nH]c2ccccc12)C(=O)N[C@@H]1C(=O)N[C@@H]([C@@H](C)CC)C(=O)NCC(=O)N[C@@H](CO)C(=O)O[C@@H]1C [Compound 14] (Decanoyl-[dN][dY][dW][dOrn][Orn]G[dOrn]WTIGS; ester 9-C) | 4 | 4 | 8 | 4 | 6.2 | 4 | 32 |
| CCCCCCCC(=O)N[C@H](CO)C(=O)N[C@H](Cc1ccc(O)cc1)C(=O)N[C@H](Cc1c[nH]c2ccccc12)C(=O)N[C@H](CCCN)C(=O)N[C@@H](CCCN)C(=O)NCC(=O)N[C@H](CCCN)C(=O)N[C@@H](Cc1c[nH]c2ccccc12)C(=O)N[C@@H]1C(=O)N[C@@H]([C@@H](C)CC)C(=O)N[C@@H](CC(N)=O)C(=O)NCC(=O)NCC(=O)O[C@@H]1C [Compound 22] (Octanoyl-[dS][dY][dW][dOrn][Orn]G[dOrn]WTINGG; ester 9-C) | 2 | 2 | 2 | 4 |  | 2 | >32 |
| CCCCCCCCCCCCCC(=O)N[C@H](CO)C(=O)N[C@H](Cc1ccc(O)cc1)C(=O)N[C@H](Cc1c[nH]c2ccccc12)C(=O)N[C@H](CCCN)C(=O)N[C@@H](CCCN)C(=O)NCC(=O)N[C@H](CCCN)C(=O)N[C@@H](Cc1c[nH]c2ccccc12)C(=O)N[C@@H]1C(=O)N[C@@H]([C@@H](C)CC)C(=O)N[C@@H](CC(N)=O)C(=O)NCC(=O)NCC(=O)O[C@@H]1C [Compound 25] (Myristoyl-[dS][dY][dW][dOrn][Orn]G[dOrn]WTINGG; ester 9-C) | 8 | 8 | 8 | 2 |  | 8 | 16 |
